Drawing on PubChem BioAssay AID652123 (The Scripps Research Institute Molecular Screening Center, 2013), this text covers IC50 for 39 compounds.

In general, IC50 refers to the concentration needed to halve the response being measured.

The source made the active and inactive calls. No rule for the calls is given here. A value given as a limit tells only on which side of the number the result lay.

This experiment has as its target Hepatocyte nuclear factor 4-alpha (Homo sapiens) (UniProt P41235). As to the kind of experiment: HNF4 dimerization inhibitors, dose response, counter-screen for ABHD5-PLIN5 interaction inhibitor project, biochemical, luminescence, round 2 (AID 652123). The settings on record: HNF4 dimerization biochemical luminescence assay. (Counterscreens check selectivity or assay interference.)

Sequence of Hepatocyte nuclear factor 4-alpha (Homo sapiens) (P41235 whole entry, looked up): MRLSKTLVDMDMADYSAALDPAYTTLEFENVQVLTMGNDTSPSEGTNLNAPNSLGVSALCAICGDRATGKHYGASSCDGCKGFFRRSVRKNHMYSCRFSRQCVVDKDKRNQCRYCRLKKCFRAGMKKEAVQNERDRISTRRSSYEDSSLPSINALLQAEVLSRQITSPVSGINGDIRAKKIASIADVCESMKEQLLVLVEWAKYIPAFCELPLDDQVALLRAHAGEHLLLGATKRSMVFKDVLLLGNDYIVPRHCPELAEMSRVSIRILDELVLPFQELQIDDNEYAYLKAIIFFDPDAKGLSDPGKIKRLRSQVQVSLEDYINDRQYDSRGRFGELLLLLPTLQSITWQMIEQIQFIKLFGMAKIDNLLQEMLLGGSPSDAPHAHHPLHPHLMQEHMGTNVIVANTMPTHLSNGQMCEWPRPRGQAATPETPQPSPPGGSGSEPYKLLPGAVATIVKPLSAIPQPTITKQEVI

Regarding `CN1C(=O)c2ccccc2Oc2ccc(NC(=O)c3cc4ccccc4[nH]3)cc21`, the IC50 was > 39.8 µM (inactive).

In the case of `Cc1ccc(NC(=O)c2nc(S(C)(=O)=O)ncc2Cl)cc1`, the IC50 was 2.44 µM.

As to `CCCCCCCNC(=O)Nc1ccc2c(c1)Sc1ccccc1C(=O)N2C`, the IC50 was > 39.8 µM (inactive).

For `Cc1ccc(CS(=O)(=O)c2ncc(Cl)c(C(=O)NCc3ccc4c(c3)OCO4)n2)cc1`, the 50% inhibitory concentration (IC50) is 1.87 µM.

`CCCS(=O)(=O)c1ccc(Cl)c(C(=O)Nc2ccc(C(=O)OCC)cc2)c1`: the IC50 was 5.66 µM.

With `CN(C)CCCN(C(=O)c1cc2ccccc2oc1=O)c1nc2ccc(Cl)cc2s1`, the IC50 was > 39.8 µM (inactive).

Take `O=C(Cc1cccc(F)c1)N1CCN(S(=O)(=O)c2ccc3c(c2)OCCO3)CC1`: the IC50 was > 39.8 µM (inactive).

`CCCC(=O)N(CCCN1CCOCC1)c1nc2ccc(Cl)cc2s1`: the IC50 is > 39.8 µM (inactive).

In the case of `Cc1ccc(CS(=O)(=O)c2ncc(Cl)c(C(=O)Nc3nnc(C(C)C)s3)n2)cc1`, the IC50 is > 39.8 µM (inactive).

With `Cc1ccc(CS(=O)(=O)c2ncc(Cl)c(C(=O)Nc3cccc4ccccc34)n2)cc1`, the IC50 is 2.79 µM.

With `Cc1ccc2c(CC(=O)N3CCN(S(=O)(=O)c4ccc5c(c4)OCCCO5)CC3)coc2c1C`, the IC50 is > 39.8 µM (inactive).

For the compound `CCS(=O)(=O)c1ncc(Cl)c(C(=O)Nc2ccc(S(N)(=O)=O)cc2)n1`, the IC50 is 5.08 µM.

Turning to `CN(C)CCCN(C(=O)C1CCCCC1)c1nc2cc(Br)ccc2s1`, the IC50 is > 39.8 µM (inactive).

For the compound `CS(=O)(=O)c1ncc(Cl)c(C(=O)Nc2ccc(C(F)(F)F)cc2)n1`, the IC50 was 1.15 µM.

On to `CCCCCCNC(=O)Nc1ccc2c(c1)Sc1ccccc1C(=O)N2C`, for which the IC50 was > 39.8 µM (inactive).

Consider `CCCCCNC(=O)Nc1ccc2c(c1)Sc1ccccc1C(=O)N2C`, for which the IC50 was > 39.8 µM (inactive).

Take `O=C(Cc1ccc2c(c1)CCCC2)N1CCN(S(=O)(=O)c2ccc3c(c2)OCCO3)CC1`: the IC50 entry was “inactive”.

Consider `CN1C(=O)c2ccccc2Sc2ccc(NC(=O)NCCc3cccs3)cc21`, for which the IC50 was > 39.8 µM (inactive).

`NS(=O)(=O)c1ccc(NC(=O)c2nc(S(=O)(=O)Cc3ccccc3)ncc2Cl)cc1`: the IC50 was 3.81 µM.

`Cc1ccc(CS(=O)(=O)c2ncc(Cl)c(C(=O)Nc3cccc(C(F)(F)F)c3)n2)cc1`: the IC50 is 3.09 µM.

With `Cc1ccc(CS(=O)(=O)c2ncc(Cl)c(C(=O)N3CCN(C)CC3)n2)cc1`, the IC50 was 2.17 µM.

Consider `CN1C(=O)c2ccccc2Sc2ccc(NC(=O)NCCCc3ccccc3)cc21`, for which the IC50 is > 39.8 µM (inactive).

As for `O=C(Nc1ccc2ccccc2c1)c1nc(S(=O)(=O)Cc2ccccc2)ncc1Cl`, the IC50 is 2.42 µM.

`CC(NC(=O)CN1CCN(S(=O)(=O)c2ccc3c(c2)OCCCO3)CC1)c1cc2ccccc2o1` (centres undefined): the IC50 was > 39.8 µM (inactive).

Turning to `CN(C)CCCN(C(=O)CCc1ccccc1)c1nc2ccc(Cl)cc2s1`, the IC50 was > 39.8 µM (inactive).

In the case of `CCS(=O)(=O)c1ncc(Cl)c(C(=O)Nc2ccc(C)cc2)n1`, the IC50 was 4.01 µM.

In the case of `CN(C(=O)c1nc(S(C)(=O)=O)ncc1Cl)c1ccccc1`, the IC50 was 1.38 µM.

Take `CN1C(=O)c2ccccc2Oc2ccc(NC(=O)c3cccs3)cc21`: the IC50 is > 39.8 µM (inactive).

With `CN1C(=O)c2ccccc2Sc2ccc(NC(=O)NCCc3ccccc3)cc21`, the IC50 was > 39.8 µM (inactive).

Regarding `COc1ccc(CCNC(=O)c2nc(S(=O)(=O)Cc3ccc(F)cc3)ncc2Cl)cc1OC`, the IC50 was 1.94 µM.

`CCCS(=O)(=O)c1ncc(Cl)c(C(=O)Nc2ccc(C(=O)OC)cc2)n1`: the IC50 was 4.99 µM.

As to `CN(C)CCCN(C(=O)C1CCCCC1)c1nc2cc(Cl)ccc2s1`, the IC50 was > 39.8 µM (inactive).

Regarding `CC(C)N1C(=O)c2ccccc2Oc2ccc(NC(=O)c3ccccc3)cc21`, the IC50 is > 39.8 µM (inactive).

Consider `O=C(c1nc(S(=O)(=O)Cc2ccccc2)ncc1Cl)N(Cc1ccccc1)Cc1ccco1`, for which the IC50 was 1.35 µM.

Regarding `COc1ccc(CC(=O)N2CCCN(S(=O)(=O)c3ccc(C)cc3)CC2)cc1OC`, the IC50 was > 39.8 µM (inactive).

As for `CCCC(=O)Nc1ccc2c(c1)C(=O)N(C)c1cc(C)ccc1O2`, the IC50 is > 39.8 µM (inactive).

With `CCCNC(=O)Nc1ccc2c(c1)N(CC)C(=O)c1ccccc1S2`, the IC50 is > 39.8 µM (inactive).

`CN(C)CCCN(C(=O)Cc1ccc(F)cc1)c1nc2ccc(Cl)cc2s1`: the IC50 was > 39.8 µM (inactive).

As to `CCCC(=O)Nc1ccc2c(c1)C(=O)N(C)c1ccccc1O2`, the IC50 is > 39.8 µM (inactive).
